{
  "source": "patent US20230200390A1",
  "about": "“SELECTIVE HERBICIDES BASED ON SUBSTITUTED ISOXAZOLIN CARBOXAMIDES AND MEFENPYR-DIETHYL” (BAYER AKTIENGESELLSCHAFT, priority 2020, published 2023)",
  "assay_type_in_all_cases": "in vivo",
  "key": {"[1]": {"test_system": "spring barley, HORVS Montoya", "assay": "Seed treatment with safener; post-emergence herbicide, crop damage", "conditions": "21 DAT; for HER effect + SAF / Reduction [%] / Reduction [Difference]: mefenpyr-diethyl 0.5 g a.i./kg seed", "summary_of_the_method": "(§1)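 Wheat and barley seeds were coated with safener (g a.i./kg seed) in a slurry prediluted with milk, then sown and grown to BBCH 12. WP herbicides with 1 l/ha MERO in 300 l/ha water were sprayed post-emergence, with untreated-seed plants as reference. Crop damage (%) was scored visually at 10 and 21 DAT.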"}, "[2]": {"test_system": "spring wheat, TRZAS Triso", "assay": "Treatment 1 day before: safener applied one day before herbicide, crop damage", "conditions": "21 DAT; for HER effect + SAF / Reduction [%] / Reduction [Difference]: mefenpyr-diethyl 50 g a.i./ha 1 day before", "source_text": "(§2) Seeds of crops (spring wheat, TRZAS; spring barley, HORVS; maize, ZEAMA) were placed in sandy loam soil in pots of a diameter of 7-8 cm, covered with soil, and cultivated in a greenhouse under good growth conditions until plants were at the 1-3 leaf stage (BBCH 11-13). For split safener and herbicide treatment, first the safener was applied followed by the herbicide treatment on the following day. The safener and herbicides were formulated as WP and sprayed onto the green parts of the plants as an aqueous suspension at an equivalent water application rate of 300 l/ha, with addition of wetting agent and adjuvants (e.g. Mero, 1.5 l/ha; ammonium sulphate, 2 kg/ha). An equivalent set of plants was treated with the herbicides but without the prior safener treatment.\n(§3) After application, the test plants were kept in the greenhouse under good growth conditions. 10 and 21 days after treatment (DAT) with the herbicide, % crop damage observed on the treated plants was scored visually in comparison to control plants that had not received any safener or herbicide treatment."}, "[3]": {"test_system": "spring barley, HORVS Montoya", "assay": "Treatment 1 day before: safener applied one day before herbicide, crop damage", "conditions": "for HER effect + SAF / Reduction [%] / Reduction [Difference]: mefenpyr-diethyl 50 g a.i./ha 1 day before", "source_text": "as §2, §3"}, "[4]": {"test_system": "spring barley, HORVS Montoya", "assay": "Tank-mix; post-emergence: crop damage by herbicide with/without safener mefenpyr-diethyl", "conditions": "for HER effect + SAF / Reduction [%] / Reduction [Difference]: HER 48 g a.i./ha + mefenpyr-diethyl 100 g a.i./ha; for HER effect: herbicide alone 48 g a.i./ha", "summary_of_the_method": "(§4)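 Greenhouse-grown spring wheat and barley treated post-emergence at 1–3-leaf stage with herbicide alone or tank-mixed with safener, sprayed at various dosages in 300 l/ha water. Crop injury scored visually 1–3 weeks after treatment as % vs untreated (0 none, 100 complete kill).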"}, "[5]": {"test_system": "spring wheat, TRZAS Triso", "assay": "Seed treatment with safener; post-emergence herbicide, crop damage", "conditions": "21 DAT; for HER effect + SAF [%] (crop damage) / Reduction [%] / Reduction [Difference]: mefenpyr-diethyl 0.5 g a.i./kg seed; for HER effect [%] (crop damage, herbicide without safener): no safener", "summary_of_the_method": "as §1"}, "[6]": {"test_system": "spring wheat, TRZAS Triso", "assay": "Tank-mix; post-emergence: crop damage by herbicide with/without safener mefenpyr-diethyl", "conditions": "21 DAT", "summary_of_the_method": "as §4"}, "[7]": {"conditions": "HER 12 g a.i./ha post-emergence"}, "[8]": {"conditions": "HER 48 g a.i./ha post-emergence"}, "[9]": {"conditions": "herbicide alone 48 g a.i./ha post-emergence"}, "[10]": {"conditions": "HER 4 g a.i./ha + mefenpyr-diethyl 50 g a.i./ha"}, "[11]": {"conditions": "HER 16 g a.i./ha + mefenpyr-diethyl 100 g a.i./ha"}},
  "data": [
    {"smiles": "CCOC(=O)C1C=CC(NC(=O)C2(C(F)(F)F)CC(c3cc(OC)cc(OC)c3)=NO2)C1", "note": "(mixture of isomers) [Example 1.12]", "values": [
      {"measurement": "HER effect + SAF", "setting": "[1]; [7]", "result": 0, "unit": "%"},
      {"measurement": "Reduction [%]", "setting": "[1]; [7]", "result": 100, "unit": "%"},
      {"measurement": "Reduction [Difference]", "setting": "[1]; [7]", "result": 20},
      {"measurement": "HER effect + SAF", "setting": "[1]; [8]", "result": 20, "unit": "%"},
      {"measurement": "Reduction [%]", "setting": "[1]; [8]", "result": 60, "unit": "%"},
      {"measurement": "Reduction [Difference]", "setting": "[1]; [8]", "result": 30},
      {"measurement": "HER effect", "setting": "[1]; herbicide alone 12 g a.i./ha post-emergence", "result": 20, "unit": "%"},
      {"measurement": "HER effect", "setting": "[1]; [9]", "result": 50, "unit": "%"},
      {"measurement": "HER effect + SAF", "setting": "[2]; HER 200 g a.i./ha", "result": 20, "unit": "%"},
      {"measurement": "Reduction [%]", "setting": "[2]; HER 200 g a.i./ha", "result": 50, "unit": "%"},
      {"measurement": "Reduction [Difference]", "setting": "[2]; HER 200 g a.i./ha", "result": 20},
      {"measurement": "HER effect", "setting": "[2]; herbicide alone 200 g a.i./ha", "result": 40, "unit": "%"},
      {"measurement": "HER effect + SAF", "setting": "[3]; HER 50 g a.i./ha, 10 DAT", "result": 20, "unit": "%"},
      {"measurement": "Reduction [%]", "setting": "[3]; HER 50 g a.i./ha, 10 DAT", "result": 64, "unit": "%"},
      {"measurement": "Reduction [Difference]", "setting": "[3]; HER 50 g a.i./ha, 10 DAT", "result": 35},
      {"measurement": "HER effect + SAF", "setting": "[3]; HER 100 g a.i./ha, 21 DAT", "result": 50, "unit": "%"},
      {"measurement": "Reduction [%]", "setting": "[3]; HER 100 g a.i./ha, 21 DAT", "result": 29, "unit": "%"},
      {"measurement": "Reduction [Difference]", "setting": "[3]; HER 100 g a.i./ha, 21 DAT", "result": 20},
      {"measurement": "HER effect", "setting": "[3]; herbicide alone 50 g a.i./ha, 10 DAT", "result": 55, "unit": "%"},
      {"measurement": "HER effect", "setting": "[3]; herbicide alone 100 g a.i./ha, 21 DAT", "result": 70, "unit": "%"},
      {"measurement": "HER effect + SAF", "setting": "[4]; 10 DAT", "result": 0, "unit": "%"},
      {"measurement": "Reduction [%]", "setting": "[4]; 10 DAT", "result": 100, "unit": "%"},
      {"measurement": "Reduction [Difference]", "setting": "[4]; 10 DAT", "result": 60},
      {"measurement": "HER effect", "setting": "[4]; 10 DAT", "result": 60, "unit": "%"}
    ]},
    {"smiles": "CC1(C(=O)NC2C=CC(C(=O)OCCCl)C2)CC(c2cc(F)cc(F)c2)=NO1", "note": "(mixture of isomers) [Example 1.47]", "values": [
      {"measurement": "HER effect + SAF [%] (crop damage)", "setting": "[5]; HER dose 4 g a.i./ha", "result": 0, "unit": "%"},
      {"measurement": "Reduction [%]", "setting": "[5]; HER dose 4 g a.i./ha", "result": 100, "unit": "%"},
      {"measurement": "Reduction [Difference]", "setting": "[5]; HER dose 4 g a.i./ha", "result": 30},
      {"measurement": "HER effect [%] (crop damage, herbicide without safener)", "setting": "[5]; HER dose 4 g a.i./ha", "result": 30, "unit": "%"},
      {"measurement": "HER effect + SAF [%] (crop damage)", "setting": "[5]; HER dose 16 g a.i./ha", "result": 10, "unit": "%"},
      {"measurement": "Reduction [%]", "setting": "[5]; HER dose 16 g a.i./ha", "result": 88, "unit": "%"},
      {"measurement": "Reduction [Difference]", "setting": "[5]; HER dose 16 g a.i./ha", "result": 70},
      {"measurement": "HER effect [%] (crop damage, herbicide without safener)", "setting": "[5]; HER dose 16 g a.i./ha", "result": 80, "unit": "%"},
      {"measurement": "HER effect + SAF", "setting": "[1]; [8]", "result": 20, "unit": "%"},
      {"measurement": "Reduction [%]", "setting": "[1]; [8]", "result": 76, "unit": "%"},
      {"measurement": "Reduction [Difference]", "setting": "[1]; [8]", "result": 65},
      {"measurement": "HER effect", "setting": "[1]; [9]", "result": 85, "unit": "%"},
      {"measurement": "HER effect + SAF", "setting": "[2]; HER 25 g a.i./ha", "result": 35, "unit": "%"},
      {"measurement": "Reduction [%]", "setting": "[2]; HER 25 g a.i./ha", "result": 53, "unit": "%"},
      {"measurement": "Reduction [Difference]", "setting": "[2]; HER 25 g a.i./ha", "result": 40},
      {"measurement": "HER effect + SAF", "setting": "[2]; HER 50 g a.i./ha", "result": 60, "unit": "%"},
      {"measurement": "Reduction [%]", "setting": "[2]; HER 50 g a.i./ha", "result": 25, "unit": "%"},
      {"measurement": "Reduction [Difference]", "setting": "[2]; HER 50 g a.i./ha", "result": 20},
      {"measurement": "HER effect", "setting": "[2]; herbicide alone 25 g a.i./ha", "result": 75, "unit": "%"},
      {"measurement": "HER effect", "setting": "[2]; herbicide alone 50 g a.i./ha", "result": 80, "unit": "%"},
      {"measurement": "HER effect + SAF", "setting": "[3]; HER 25 g a.i./ha, 21 DAT", "result": 40, "unit": "%"},
      {"measurement": "Reduction [%]", "setting": "[3]; HER 25 g a.i./ha, 21 DAT", "result": 33, "unit": "%"},
      {"measurement": "Reduction [Difference]", "setting": "[3]; HER 25 g a.i./ha, 21 DAT", "result": 20},
      {"measurement": "HER effect", "setting": "[3]; herbicide alone 25 g a.i./ha, 21 DAT", "result": 60, "unit": "%"},
      {"measurement": "HER effect + SAF", "setting": "[6]; [10]", "result": 10, "unit": "%"},
      {"measurement": "Reduction [%]", "setting": "[6]; [10]", "result": 67, "unit": "%"},
      {"measurement": "Reduction [Difference]", "setting": "[6]; [10]", "result": 20},
      {"measurement": "HER effect + SAF", "setting": "[6]; [11]", "result": 20, "unit": "%"},
      {"measurement": "Reduction [%]", "setting": "[6]; [11]", "result": 75, "unit": "%"},
      {"measurement": "Reduction [Difference]", "setting": "[6]; [11]", "result": 60},
      {"measurement": "HER effect", "setting": "[6]; herbicide alone 4 g a.i./ha", "result": 30, "unit": "%"},
      {"measurement": "HER effect", "setting": "[6]; herbicide alone 16 g a.i./ha", "result": 80, "unit": "%"},
      {"measurement": "HER effect + SAF", "setting": "[4]; 21 DAT", "result": 60, "unit": "%"},
      {"measurement": "Reduction [%]", "setting": "[4]; 21 DAT", "result": 29, "unit": "%"},
      {"measurement": "Reduction [Difference]", "setting": "[4]; 21 DAT", "result": 25},
      {"measurement": "HER effect", "setting": "[4]; 21 DAT", "result": 85, "unit": "%"}
    ]}
  ]
}
